Data set [1] deals with T1, Alpha-ketoglutarate-dependent dioxygenase FTO (Homo sapiens, UniProt Q9C0B1). The experiment in a line: Inhibition of N-terminal His-tagged human FTO expressed in Escherichia coli BL21(DE3) by PAGE based assay.
Target sequence in this assay (Q9C0B1 whole entry): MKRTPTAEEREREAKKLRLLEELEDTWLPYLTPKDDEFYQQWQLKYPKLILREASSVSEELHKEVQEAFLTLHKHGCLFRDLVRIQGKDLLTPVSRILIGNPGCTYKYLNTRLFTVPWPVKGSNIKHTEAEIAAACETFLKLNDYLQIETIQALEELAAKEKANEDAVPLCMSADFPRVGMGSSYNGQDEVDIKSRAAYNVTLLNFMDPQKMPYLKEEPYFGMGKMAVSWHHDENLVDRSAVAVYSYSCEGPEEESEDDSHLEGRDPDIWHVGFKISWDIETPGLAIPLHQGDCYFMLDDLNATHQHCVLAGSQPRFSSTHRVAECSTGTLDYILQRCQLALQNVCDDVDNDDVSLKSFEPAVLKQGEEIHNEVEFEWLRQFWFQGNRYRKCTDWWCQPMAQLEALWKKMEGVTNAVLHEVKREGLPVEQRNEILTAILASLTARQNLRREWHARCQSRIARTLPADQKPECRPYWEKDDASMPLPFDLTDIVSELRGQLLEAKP
Data set [2] addresses T1, Alpha-ketoglutarate-dependent dioxygenase FTO.
Target sequence in this assay (Q9C0B1 whole entry, looked up): as the sequence (Q9C0B1 whole entry) above
Description: Binding affinity to N-terminal His-tagged human FTO expressed in Escherichia coli BL21(DE3) assessed as change in melting temperature at 1:20 protein to compound ratio by fluorescence based thermal shift assay
Data set [3] has the same target. This is another data set of the same source.
Target sequence in this assay (Q9C0B1 whole entry, looked up): as the sequence (Q9C0B1 whole entry) above
Description: Binding affinity to N-terminal His-tagged human FTO expressed in Escherichia coli BL21(DE3) assessed as change in melting temperature at 1:5 protein to compound ratio by fluorescence based thermal shift assay
Data set [4] concerns NB-4. Nature of the data set: Antiproliferative activity against human NB-4 cells assessed as reduction in cell viability at 10 uM administered as single dose measured after 48 hrs by CCK-8 assay. The class given is functional, cell-based.
The test system of data set [5] is MONO-MAC-6. The experiment in a line: Antiproliferative activity against human MONO-MAC-6 cells assessed as reduction in cell viability at 10 uM administered as single dose measured after 48 hrs by CCK-8 assay. The class given is functional, cell-based.
Data set [6] deals with THP-1. The experiment in a line: Antiproliferative activity against human THP-1 cells assessed as reduction in cell viability measured after 48 hrs by CCK-8 assay. As to conditions: THP-1, 48 h.
Data set [7] can be described thus: Acute toxicity in BALB/c mouse assessed as body weight loss at 20 mg/kg, ip administered once daily for 7 days. The settings on record: in vivo, 168 h, time 7 day. The data set is classed as organism-based.
The subject of data set [8] is NB-4. The experiment in a line: Inhibition of colony formation in human NB-4 cells measured after 14 days by nitroblue tetrazolium chloride staining based soft agar assay. The settings on record: dose 5-15 µM, time 14.0 day, DDE = dose-dependent effect. The data set is classed as functional, cell-based.
In data set [9] the test system is MONO-MAC-6. Nature of the data set: Antiproliferative activity against human MONO-MAC-6 cells assessed as reduction in cell viability measured after 48 hrs by CCK-8 assay. As to conditions: MONO-MAC-6, 48 h.
Data set [10] has as its system MONO-MAC-6. Nature of the data set: Antitumor activity against human MONO-MAC-6 cells xenografted in busulfan treated NSG mouse assessed as increase in animal survial rate at 20 mg/kg, ip administered once daily for 22 days. The data set is classed as functional, organism-based. The settings on record: time 22.0 day.
Data set [11] in a line: Toxicity in busulfan treated NSG mouse xenografted with human MONO-MAC-6 cells assessed as reduction in body weight at 20 mg/kg, ip administered once daily for 22 days. The data set is classed as organism-based. The settings on record: in vivo, 528 h, time 22 day.
Data set [12] has as its system NB-4. Nature of the data set: Antiproliferative activity against human NB-4 cells assessed as reduction in cell viability measured after 48 hrs by CCK-8 assay. The settings on record: NB-4, 48 h.
The subject of data set [13] is HEL. The experiment in a line: Antiproliferative activity against HEL cells assessed as reduction in cell viability measured after 48 hrs by CCK-8 assay. As to conditions: Homo sapiens.

Structures are written as SMILES. The source made the active and inactive calls. The calls are words filed in the database; no cut-off is given here.

For the compound `O=C(O)c1ccccc1Nc1c(Cl)cc(-c2cc(O)cc(O)c2)cc1Cl`, in [1], the IC50 came to 2400 nM. Same read-out and setting: for `Cc1cc(-c2cc(Cl)c(Nc3ccccc3C(=O)O)c(Cl)c2)ccn1` the value was 6500 nM. In the case of `O=C(O)c1ccccc1Nc1c(Cl)cc(-c2ccncc2)cc1Cl`, the ΔTm worked out at 1.5 °C in [2] and 0.5 °C in data set [3]. In addition, the midpoint of inhibition in data set [1], the IC50, lay at 1500 nM. In [1], `CCc1cc(-c2c(C)noc2C)cc(CC)c1Nc1ccccc1C(=O)O` showed an IC50 of 1400 nM.

In turn, `Cc1noc(C)c1-c1cc(Cl)c(Nc2cc(F)c(F)cc2C(=O)O)c(Cl)c1` displayed an IC50 in [1] of 3400 nM. Consider `Cc1noc(C)c1-c1ccc(Nc2ccccc2C(=O)O)cc1`, for which the result in [4] and in data set [5] was Active. Take `Cc1noc(C)c1-c1cc(Cl)c(Nc2ccc(F)cc2C(=O)O)c(Cl)c1`: in data set [1], the midpoint of inhibition, the IC50, lay at 1100 nM.

Turning to `Cc1cc(-c2c(C)noc2C)cc(C)c1Nc1ccccc1C(=O)O`, in data set [1], the IC50 worked out at 1900 nM. The same measure, in the same setting: for `O=C(O)c1ccccc1Nc1c(Cl)cc(-c2ccn[nH]2)cc1Cl` the value was 7200 nM. For `Cc1noc(C)c1-c1cc(F)c(Nc2ccccc2C(=O)O)c(Cl)c1`, the IC50 came out at 7300 nM in data set [6], 1900 nM in [9], 2100 nM in [12] and 7700 nM in data set [13]. The Activity result in data set [7] was “Non-Toxic”; in data set [11] it was “Toxic”. Also, in data set [8], the inhibition entry is “Dde”. The outcome in data set [10], in [4] and in [5] was Active.

In the case of `COc1cc(-c2c(C)noc2C)cc(OC)c1Nc1ccccc1C(=O)O`, the outcome in [4] and in data set [5] was Active. Regarding `O=C(O)c1ccccc1Nc1c(Cl)cc(-c2cnoc2)cc1Cl`, the IC50 in data set [1] amounted to 1700 nM. With `COc1cccc(Nc2c(Cl)cc(-c3c(C)noc3C)cc2Cl)c1C(=O)O`, in [1], the IC50 came to 2200 nM. Still for that read-out and setting: for `Cc1noc(C)c1-c1cc(Cl)c(Nc2cccc(F)c2C(=O)O)c(Cl)c1` the value was 1600 nM.

For the origin of these results see ChEMBL document CHEMBL5120916, “Structure-Activity Relationships and Antileukemia Effects of the Tricyclic Benzoic Acid FTO Inhibitors” (J Med Chem, 2022).
